One assay deals with ATXN3L (Homo sapiens, UniProt Q9H3M9). The assay is described as follows: DUB/cathepsin selectivity biochemical assay.
In a further assay the target is USP24 (Homo sapiens, UniProt Q9UPU5). Put plainly: DUB/cathepsin selectivity biochemical assay.
A further assay deals with USP22 (Homo sapiens, UniProt Q9UPT9). Put plainly: DUB/cathepsin selectivity biochemical assay.
The target in another assay is USP15 (Homo sapiens, UniProt Q9Y4E8). Put plainly: DUB/cathepsin selectivity biochemical assay.
Another assay addresses USPL1 (Homo sapiens, UniProt Q5W0Q7). Put plainly: DUB/cathepsin selectivity biochemical assay.
A further assay concerns the target USP10 (Homo sapiens, UniProt Q14694). The assay is described as follows: DUB/cathepsin selectivity biochemical assay.
The target of the next assay is OTUB2 (Homo sapiens, UniProt Q96DC9). The assay is described as follows: DUB/cathepsin selectivity biochemical assay.
Sequence of OTUB2 (Q96DC9 whole entry, species assumed): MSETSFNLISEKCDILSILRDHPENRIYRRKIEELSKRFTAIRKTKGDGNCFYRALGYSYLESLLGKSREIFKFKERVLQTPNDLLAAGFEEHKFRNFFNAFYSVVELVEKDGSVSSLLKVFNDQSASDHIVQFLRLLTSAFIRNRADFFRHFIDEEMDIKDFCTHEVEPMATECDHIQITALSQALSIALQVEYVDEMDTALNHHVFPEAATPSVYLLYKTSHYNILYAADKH
For the next assay, the target named is USP4 (Homo sapiens, UniProt Q13107). Put plainly: DUB/cathepsin selectivity biochemical assay.
Another assay has as its target USP14 (Homo sapiens, UniProt P54578). The assay is described as follows: DUB/cathepsin selectivity biochemical assay.
Another assay concerns the target USP5 (Homo sapiens, UniProt P45974). Put plainly: DUB/cathepsin selectivity biochemical assay.
The target of the next assay is T1, USP21 CD (Homo sapiens, UniProt Q9UK80).
T1 construct: USP21 CD
T1 sequence (Q9UK80 212-558 limits assumed): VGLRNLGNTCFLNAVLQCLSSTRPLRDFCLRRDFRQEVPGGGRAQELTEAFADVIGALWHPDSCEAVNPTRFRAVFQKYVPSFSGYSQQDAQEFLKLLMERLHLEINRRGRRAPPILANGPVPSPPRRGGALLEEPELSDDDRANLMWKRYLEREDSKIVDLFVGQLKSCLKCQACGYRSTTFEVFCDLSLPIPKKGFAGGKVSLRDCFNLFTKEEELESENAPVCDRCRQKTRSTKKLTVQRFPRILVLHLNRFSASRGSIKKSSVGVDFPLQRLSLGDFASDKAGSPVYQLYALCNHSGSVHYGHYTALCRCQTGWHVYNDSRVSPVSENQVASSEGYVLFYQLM
Put plainly: DUB/cathepsin selectivity biochemical assay.

A further assay addresses OTUD5(p177S) (Homo sapiens, UniProt Q96G74). The assay is described as follows: DUB/cathepsin selectivity biochemical assay.
The next assay has as its system SH-SY5Y mito-QC cells. The assay is described as follows: Mitophagy (mito-QC) live imaging in SH-SY5Y cells. It counts as cell-based, human. As for the experimental part:
SH-SY5Y cells stably expressing mCherry-GFP-Fis1101-152 reporter (SH-SY5Y mito-QC) kindly provided by Dr I Ganley (MRC PPU, Dundee) were cultured in DMEM/F12 media supplemented with 1% L-glutamine, 1% penicillin/streptomycin, 1% non-essential amino acids, 10% fetal bovine serum at 37 °C and 5% CO2.
For inhibitor studies, live imaging was applied to mitophagy puncta analysis in SH-SY5Y mito-QC cells. SH-SY5Y mito-QC cells were plated overnight at 7000 cells/well into black walled PhenoPlate 96-well microplates in DMEM/F-12 (phenol red free) supplemented as above. SH-SY5Y mito-QC cells were incubated with NucBlue™ live stain for 20 mins then washed. […] Cells were live imaged using the Operetta CLS Type HH1600 (optical mode set to confocal, 40x water objective) at timepoints 0 h, 4 h, 20 h, 24 h, 48 h and 72 h. Images were acquired using the following channel settings: mCherry; excitation 530/60 nm, emission 570/650 nm, GFP; excitation 460/90 nm, emission 500/650 nm, Hoechst; excitation 355/85 nm, emission 430/500 nm. For all conditions tested, quantification of mitophagy was performed from three independent experiments (with three technical replicates capturing 11 fields of views, 6 z-stacks).
Image Quantification: For analysis of mitophagy, images were processed with the Harmony analysis software using the “SH-SY5Y-mito-QC_analysis 2” sequence. For mitolysosome identification the following analysis steps were performed: (1) Identification of the cell nuclei using Hoechst staining, (2) Identification of the cell cytoplasm using a deep phase contrast (DPC) image, (3) Identification of the mitochondrial network, using the Ser-Bright function on the mCherry channel within the cytoplasm, (4) Mitochondrial network partitioning using the FindSpots function, (5) Identification of mitophagic puncta with the partitioned mitochondrial network, using an mCherry:GFP ratio threshold of mean >+3 standard deviations from the 24 h DMSO only treated cells.

In the next assay the target is USP6 (Homo sapiens, UniProt P35125). Put plainly: DUB/cathepsin selectivity biochemical assay.
Sequence of USP6 (P35125 whole entry, species assumed): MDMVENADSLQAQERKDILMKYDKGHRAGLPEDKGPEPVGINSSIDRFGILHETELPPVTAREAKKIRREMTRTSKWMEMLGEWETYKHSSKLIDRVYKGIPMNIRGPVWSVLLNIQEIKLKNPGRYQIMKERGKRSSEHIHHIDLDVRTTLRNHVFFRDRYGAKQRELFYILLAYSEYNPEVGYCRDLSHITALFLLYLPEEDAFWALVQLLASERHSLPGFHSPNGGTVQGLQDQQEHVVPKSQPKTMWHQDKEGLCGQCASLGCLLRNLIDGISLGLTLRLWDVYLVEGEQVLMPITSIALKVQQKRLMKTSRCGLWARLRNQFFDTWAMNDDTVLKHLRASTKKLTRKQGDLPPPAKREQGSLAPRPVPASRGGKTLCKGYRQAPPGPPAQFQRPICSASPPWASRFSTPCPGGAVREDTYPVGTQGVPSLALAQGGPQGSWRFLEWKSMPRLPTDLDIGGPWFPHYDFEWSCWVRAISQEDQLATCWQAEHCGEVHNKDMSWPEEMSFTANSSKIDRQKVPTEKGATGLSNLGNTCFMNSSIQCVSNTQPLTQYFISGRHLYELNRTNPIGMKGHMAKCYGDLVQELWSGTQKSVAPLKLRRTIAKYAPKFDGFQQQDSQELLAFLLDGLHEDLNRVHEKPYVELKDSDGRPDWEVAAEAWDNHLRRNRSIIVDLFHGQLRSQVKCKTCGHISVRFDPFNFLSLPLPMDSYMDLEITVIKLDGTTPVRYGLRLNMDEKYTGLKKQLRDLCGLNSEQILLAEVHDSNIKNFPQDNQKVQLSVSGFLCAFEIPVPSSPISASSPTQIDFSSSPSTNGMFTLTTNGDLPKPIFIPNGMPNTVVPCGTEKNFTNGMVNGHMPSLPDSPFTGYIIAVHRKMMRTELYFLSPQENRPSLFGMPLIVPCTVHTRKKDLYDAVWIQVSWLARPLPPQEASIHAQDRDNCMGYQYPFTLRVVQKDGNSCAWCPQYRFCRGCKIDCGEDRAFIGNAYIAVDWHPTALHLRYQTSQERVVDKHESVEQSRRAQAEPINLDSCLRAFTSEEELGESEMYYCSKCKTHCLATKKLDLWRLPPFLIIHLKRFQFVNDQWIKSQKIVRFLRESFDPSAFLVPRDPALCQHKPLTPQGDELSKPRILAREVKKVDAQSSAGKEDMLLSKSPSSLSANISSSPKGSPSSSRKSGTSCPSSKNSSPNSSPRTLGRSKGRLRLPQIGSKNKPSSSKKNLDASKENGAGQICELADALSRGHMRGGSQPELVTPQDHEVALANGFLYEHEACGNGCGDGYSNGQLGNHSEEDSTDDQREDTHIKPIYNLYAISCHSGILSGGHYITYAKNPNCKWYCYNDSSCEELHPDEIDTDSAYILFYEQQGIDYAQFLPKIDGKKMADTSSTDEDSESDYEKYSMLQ
For another assay, the target named is T2, OTUD3 CD (Homo sapiens, UniProt Q5T2D3).
T2 construct: OTUD3 CD
T2 sequence (Q5T2D3 65-189 limits assumed): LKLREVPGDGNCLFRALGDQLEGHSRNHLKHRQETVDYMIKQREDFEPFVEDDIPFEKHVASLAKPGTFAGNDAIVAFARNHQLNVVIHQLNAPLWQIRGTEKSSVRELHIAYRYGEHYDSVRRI
The assay is described as follows: DUB/cathepsin selectivity biochemical assay.

The next assay concerns the target Cathepsin L (Homo sapiens, UniProt P07711). Put plainly: DUB/cathepsin selectivity biochemical assay. The settings on record: Supplementary Fig. 6a; read-out: Selectivity vs Cathepsins (IC50), Cath L.
Another assay concerns the target USP46/UAF1 (Homo sapiens, UniProt P62068). The assay is described as follows: DUB/cathepsin selectivity biochemical assay.
Another assay concerns the target UchL3 (Homo sapiens, UniProt P15374). The assay is described as follows: DUB/cathepsin selectivity biochemical assay.
Assay [1] has as its system TOM20-ubiquitylation in control (AHN) iPSC-derived dopaminergic neurons. The assay is described as follows: TOM20-ubiquitylation in control iPSC-derived dopaminergic neurons. The class given is cell-based, human. The settings on record: no exogenous stimuli. From the text: Donor-derived DopaNeuron lines were generated from source material provided by the Parkinson’s Progression Markers Initiative (PPMI) through The Michael J. Fox Foundation. Human iPS cells-derived DopaNeurons were purchased from Fujifilm/Cellular Dynamics. Apparently healthy normal (AHN) (catalog # R1088) or alpha-synuclein A53T mutated (A53T) (catalog # R1109) iPSC-derived dopaminergic neurons (dopaneurons) were thawed from liquid nitrogen. 400 000 viable (counted using a cell counter) dopaneurons […] were plated per well into 24 well plates on day 0 in complete maintenance medium (CMM).
A half-medium change was performed on the cells on Day 3 with CMM. On Day 5 cells were half-medium changed with complete brainphys medium. […] Cells were given half medium changes with or without compounds (depending on whether treatments with compound had started) every 2-3 days.

The target in another assay is USP28 (Homo sapiens, UniProt Q96RU2). The assay is described as follows: DUB/cathepsin selectivity biochemical assay.
In the next assay the target is USP13 (Homo sapiens, UniProt Q92995). The assay is described as follows: DUB/cathepsin selectivity biochemical assay.
Sequence of USP13 (Q92995 whole entry, species assumed): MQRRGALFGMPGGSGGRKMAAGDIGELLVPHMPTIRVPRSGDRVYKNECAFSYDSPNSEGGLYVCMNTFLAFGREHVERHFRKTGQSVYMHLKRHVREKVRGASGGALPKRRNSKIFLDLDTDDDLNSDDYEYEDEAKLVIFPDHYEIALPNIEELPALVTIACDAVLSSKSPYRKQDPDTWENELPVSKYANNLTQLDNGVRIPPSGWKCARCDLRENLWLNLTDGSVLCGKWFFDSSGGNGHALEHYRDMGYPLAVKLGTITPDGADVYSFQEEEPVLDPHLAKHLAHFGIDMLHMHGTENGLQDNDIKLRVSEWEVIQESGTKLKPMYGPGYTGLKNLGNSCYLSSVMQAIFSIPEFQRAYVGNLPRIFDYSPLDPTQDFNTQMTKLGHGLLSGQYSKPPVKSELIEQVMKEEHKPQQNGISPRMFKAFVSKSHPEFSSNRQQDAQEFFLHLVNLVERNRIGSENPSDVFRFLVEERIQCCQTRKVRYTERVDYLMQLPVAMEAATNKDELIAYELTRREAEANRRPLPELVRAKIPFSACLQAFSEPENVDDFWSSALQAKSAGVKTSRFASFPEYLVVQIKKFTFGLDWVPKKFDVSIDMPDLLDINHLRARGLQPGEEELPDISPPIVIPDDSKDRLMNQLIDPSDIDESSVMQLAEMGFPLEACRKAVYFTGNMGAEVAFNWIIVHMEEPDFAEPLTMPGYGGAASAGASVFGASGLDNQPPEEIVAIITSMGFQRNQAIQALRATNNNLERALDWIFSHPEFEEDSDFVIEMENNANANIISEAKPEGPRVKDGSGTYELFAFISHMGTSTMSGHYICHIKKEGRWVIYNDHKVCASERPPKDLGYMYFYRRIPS

“Also recorded” adds a separate entry of the source.

Sequence of USP5 (P45974 whole entry, species assumed): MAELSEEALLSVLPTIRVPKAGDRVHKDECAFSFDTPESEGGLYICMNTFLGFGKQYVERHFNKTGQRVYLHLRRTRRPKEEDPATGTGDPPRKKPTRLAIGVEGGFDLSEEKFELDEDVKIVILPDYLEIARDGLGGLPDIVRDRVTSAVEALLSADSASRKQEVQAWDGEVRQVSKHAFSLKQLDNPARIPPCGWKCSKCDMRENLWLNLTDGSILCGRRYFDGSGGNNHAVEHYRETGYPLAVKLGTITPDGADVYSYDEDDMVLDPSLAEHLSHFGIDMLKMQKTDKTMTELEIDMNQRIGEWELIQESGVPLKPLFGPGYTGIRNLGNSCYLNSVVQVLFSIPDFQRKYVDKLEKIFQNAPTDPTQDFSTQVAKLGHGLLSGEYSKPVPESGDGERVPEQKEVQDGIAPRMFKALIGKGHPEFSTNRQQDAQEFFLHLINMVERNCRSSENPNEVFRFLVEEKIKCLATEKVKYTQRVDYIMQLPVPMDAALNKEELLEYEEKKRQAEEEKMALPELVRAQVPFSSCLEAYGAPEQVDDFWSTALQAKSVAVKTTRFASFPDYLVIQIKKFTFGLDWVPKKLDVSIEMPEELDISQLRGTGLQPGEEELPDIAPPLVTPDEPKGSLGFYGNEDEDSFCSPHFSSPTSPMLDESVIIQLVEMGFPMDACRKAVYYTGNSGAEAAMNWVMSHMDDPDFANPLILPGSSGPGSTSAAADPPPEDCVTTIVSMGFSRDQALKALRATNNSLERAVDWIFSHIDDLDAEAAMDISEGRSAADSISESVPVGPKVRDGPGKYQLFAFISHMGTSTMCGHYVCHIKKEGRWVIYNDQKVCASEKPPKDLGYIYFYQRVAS
Sequence of USP14 (P54578 whole entry, species assumed): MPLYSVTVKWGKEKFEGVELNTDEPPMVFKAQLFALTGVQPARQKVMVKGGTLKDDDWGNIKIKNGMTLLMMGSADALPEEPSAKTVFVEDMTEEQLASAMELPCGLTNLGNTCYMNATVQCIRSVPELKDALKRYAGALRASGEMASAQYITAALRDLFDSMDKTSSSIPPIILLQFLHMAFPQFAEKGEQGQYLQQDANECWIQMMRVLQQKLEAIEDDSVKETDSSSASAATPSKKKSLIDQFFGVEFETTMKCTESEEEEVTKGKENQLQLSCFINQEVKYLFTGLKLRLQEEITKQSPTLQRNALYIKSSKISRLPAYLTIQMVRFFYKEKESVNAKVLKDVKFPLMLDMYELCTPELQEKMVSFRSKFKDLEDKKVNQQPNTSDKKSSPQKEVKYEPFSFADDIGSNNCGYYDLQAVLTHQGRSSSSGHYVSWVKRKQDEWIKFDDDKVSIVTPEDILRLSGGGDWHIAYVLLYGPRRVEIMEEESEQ
Sequence of OTUD5(p177S) (Q96G74 whole entry, species assumed): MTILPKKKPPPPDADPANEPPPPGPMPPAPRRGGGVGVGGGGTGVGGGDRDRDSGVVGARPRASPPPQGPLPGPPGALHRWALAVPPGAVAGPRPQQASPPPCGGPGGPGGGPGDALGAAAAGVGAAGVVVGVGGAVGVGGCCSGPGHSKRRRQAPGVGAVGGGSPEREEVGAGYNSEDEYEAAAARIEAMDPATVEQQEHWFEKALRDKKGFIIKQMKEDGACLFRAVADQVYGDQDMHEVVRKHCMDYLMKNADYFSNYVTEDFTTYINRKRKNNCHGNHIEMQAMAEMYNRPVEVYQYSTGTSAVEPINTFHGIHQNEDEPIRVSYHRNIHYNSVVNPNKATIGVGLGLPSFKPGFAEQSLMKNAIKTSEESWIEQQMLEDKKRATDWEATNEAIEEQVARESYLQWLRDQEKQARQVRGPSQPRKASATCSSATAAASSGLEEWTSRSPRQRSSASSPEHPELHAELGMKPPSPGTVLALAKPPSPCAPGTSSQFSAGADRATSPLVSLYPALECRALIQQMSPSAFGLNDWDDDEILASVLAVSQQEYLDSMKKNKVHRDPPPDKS

As to `C[C@@H]1[C@H]2CCN(C(=O)c3ncc(-c4ccnc(C#N)c4)o3)[C@H]2CN1C#N` [MTX115325], the half-maximal inhibitory concentration (IC50) (as a rule, the midpoint of a concentration-inhibition curve) against ATXN3L was 173 µM; on USP24, over 300 µM; at USP22, 147 µM; on USP15 it was over 300 µM; against USPL1 it was over 300 µM; against USP10, 107 µM. For the same compound, the 50% inhibitory concentration (IC50) was over 300 µM against OTUB2; over 300 µM against USP4; over 300 µM against USP14; over 300 µM against USP5; 60.7 µM on USP21 CD; over 300 µM against OTUD5(p177S). The IC50 against USP6 was 96.3 µM; against OTUD3 CD it was over 300 µM; at Cathepsin L, 42.1 µM; against USP46/UAF1 it was over 300 µM; on UchL3 it was over 300 µM; on USP28, 106 µM. On USP13, this compound had a half-maximal inhibitory concentration (IC50) of over 300 µM. In the assay with SH-SY5Y mito-QC cells (37 nM, 72 h, with 0.1 mM A/O as printed), the Increase in mitophagy came out at 22%. Besides, the “Maximum increase in mitophagy compared to baseline” value in the assay on SH-SY5Y mito-QC cells (1 µM, 72 h, with 0.1 mM A/O as printed) stood at 54%. Further, in the assay with SH-SY5Y mito-QC cells (72 h in combination with sub-maximal A/O), the “Mitophagy (mito-QC)” value is reported as “significantly potentiates mitophagy induction; also recorded: concentration-dependent increase in mitophagy”. The TOM20-ubiquitylation entry is “increased TOM20-ubiquitylation” in assay [1] (control background, 24 h, 1 µM) and “caused the upregulation of TOM20-ubiquitylation” in assay [1] (control neurons, 7 days at 10 nM, 100 nM or 1 µM).

For the origin of these results see article PMC10643470, “Knockout or inhibition of USP30 protects dopaminergic neurons in a Parkinson’s disease mouse model” (Nature Communications, 2023).
